Results on seven molecules are retold here after patent publication US10730886B2, “Compound having effect of inhibiting platelet aggregation and salt thereof, and composition for preventing or treating thrombotic diseases, containing same” (SHIN POONG PHARMACEUTICAL CO., LTD., priority 2015, dated 2020).

In data set [1] the test system is carotid artery shear stress model. The data set can be described thus: Carotid artery shear stress model, amount of thrombus. Type of data set: in vivo, Sprague-Dawley rats. The following applies: rat; for Amount of thrombus (mg, Mean ± SEM): 25 mg/kg oral, twice a day for 3 days after operation; for shear stress-induced thrombogenesis compared with the control group: oral. As to the method: Vehicle (0.5% methylcellulose), clopidogrel (8 mg/kg), aspirin (50 mg/kg) or a candidate substance was orally administered to male Sprague-Dawley rats (250 to 300 g). 2 hours after administration, the rats were anesthetized by ketamine/rompun (ketamine/xylazine) cocktail 0.1 ml/100 g. Except for the normal control group, the right cervical skin of the experimental animals was incised to expose the common carotid artery. A surgical tube with a length of 1 mm and an inside diameter of 0.58 mm was inserted into the exposed carotid artery and tied with a single thread. The exposed site and the operation site were treated with an anti-adhesion agent, and then sutured for the animals to recover. After the surgery, vehicle, clopidogrel, aspirin or a candidate substance was orally administered to the rats twice a day for 3 days. On the fourth day, 2 hours after the final administration, urethane (100 mg/300 μl/100 g) was administered intraperitoneally to the rats to induce anesthesia, and the operation site was opened to separate a total of 1 cm of the blood vessel, 5 mm above and 5 mm below the surgical tube. The separated blood vessel was perfused with 0.2 ml of 0.9% saline at 0.3 ml/min to remove the remaining blood, and then maintained in 1 ml of protein lysis buffer (NaOH 2 g, Na2CO3 0.1 g in 500 ml D.W). After collected, the blood vessel thrombus was double-boiled in boiling water together with the protein lysis buffer. 200 μl of the reaction solution (10 ml bicinchoninic acid solution+200 μl 4% aqueous solution of copper sulfate) was added to 10 μl of the heated thrombus, and the mixture was reacted at 37° C. for 30 minutes and quantified with an ELISA reader (562 nm).

The test system of data set [2] is collagen-induced platelet aggregation, Human PRP. The data set can be described thus: Collagen-induced platelet aggregation in human PRP (lumi-aggregometer). In kind it is cell-based. The following applies: collagen 2-5 μg/ml. How it is done: (§1) To investigate whether the candidate substance has inhibition selectivity for shear-stress-induced platelet aggregation, which is by a physical stimulus, […] experiment was conducted by activating platelets with physiological agonists—i.e., thrombin, collagen and ADP—to study the inhibitory effect of the candidate substance.
(§2) Human PRP (598.8 μl) was treated with 1.2 μl of the candidate substance per concentration (25, 100, 250 μM) and reacted at 37° C. for 3 minutes using a thermomixer. Then, PRP (495 μl) was put in the aggregometer cuvette and preincubated for 1 minute, followed by treatment with platelet aggregation-inducing reagent, thrombin (0.6-0.8 U/ml), collagen (2-5 μg/ml), or ADP (adenosine diphosphate, 15-20 μM) at the minimum concentration causing maximum aggregation. The degree of aggregation of the platelets was measured by a turbidity change using a lumi-aggregometer (Chrono-Log Co., USA). The turbidity of the PRP was considered as 0%, and the turbidity of the PPP was considered as 100%. During the measurement, the reaction mixture was continuously stirred at 1,000 rpm with a silicone-coated magnetic stir bar.

Data set [3] has as its system ADP-induced platelet aggregation, Human PRP. The data set can be described thus: ADP-induced platelet aggregation in human PRP (lumi-aggregometer). In kind it is cell-based. The following applies: ADP 15-20 μM. As to the method: as §1, §2
In data set [4] the test system is human vascular endothelial cells (EA.hy926). The data set can be described thus: Cytotoxicity in EA.hy926 cell line (MTT assay). Type of data set: cell-based. The following applies: 24 hours. How it is done:
5-1. Evaluation of Cytotoxicity of Candidate Substances Using EA.hy926 Cell Line
Experiments were conducted to determine the cytotoxicity of candidate substances in human vascular endothelial cells (EA.hy926). EA.hy926 was passaged in DMEM (Dulbecco's […]) supplemented with 10% fetal bovine serum (FBS) at 5% CO2/37° C. The cells were cultured in a 96 well plate at 1×10^4 cells/well for 48 hours, washed twice with DMEM and then cultured for 24 hours. Candidate substances were prepared at final concentrations of 25 and 100 μM, applied to the wells at 200 μl per well and cultured for 24 hours. MTT assay was used to measure the absorbance at 570 nm after colorization in violet.
Background: Tetrazolium assays rely on reduction of a dye to a coloured formazan, in cell work by metabolically active cells.

The test system of the next data set is Sprague-Dawley rats. As to the kind of experiment: Bleeding side effect (tail bleeding time) after single oral administration. Type of data set: in vivo. As to conditions: rat, tail cut 1 hour after administration. As to the method: Male Sprague-Dawley rats (250 to 300 g) were fasted overnight and then were orally administered with the candidate substances at each concentration. After 1 hour, the rats were anesthetized by intraperitoneal injection of urethane (1.25 g/kg). The 3 mm portion of the tail tip of the rats was cut and carefully wiped every 30 seconds. Bleeding time was measured in […] until no more blood was drawn, and when the bleeding lasted longer than 30 minutes, the bleeding time was recorded as 30 minutes.

As for `O=C(c1ccc(O)c(O)c1)N1CCc2sccc2C1` [Example 1, (6,7-Dihydrothieno[3,2-c]pyridin-5(4H)-yl)(3,4-dihydroxyphenyl)methanone], the “Amount of thrombus (mg, Mean ± SEM)” value in data set [1] is on record as 0.065 ± 0.005 mg. The “shear stress-induced thrombogenesis compared with the control group” value in data set [1] is “significantly, remarkably inhibited”. Moreover, the “Degree of platelet aggregation (%, Mean ± SEM)” value (“Degree … (%, Mean ± SEM)” for short) in data set [2] (25 μM) is on record as 84.3 ± 3.5%; in data set [2] (100 μM), 80.7 ± 10.2%; in data set [2] (250 μM), 84.3 ± 3.8%; in data set [3] (compound 25 μM), 77.5 ± 3.5%; in data set [3] (compound 100 μM), 69.0 ± 6.0%; in data set [3] (compound 250 μM), 78.0 ± 7.0%. Besides, the “Cell viability (%)” value in data set [4] (EA.hy926, 25 μM) turned out to be 92.2 ± 2.8%; in data set [4] (EA.hy926, 100 μM) it was 94.2 ± 1.9%. Also, the entries for the “Bleeding time” value in the data set on Sprague-Dawley rats (25 μM (so in the source)) and with Sprague-Dawley rats (100 μM (so in the source)) were 6.0 ± 0.9 min and 6.5 ± 0.9 min, respectively.
Regarding `COc1cc(C(=O)N2CCc3sccc3C2)ccc1O` [Example 12, (6,7-Dihydrothieno[3,2-c]pyridin-5(4H)-yl)(4-hydroxy-3-methoxyphenyl)methanone], the “Amount of thrombus (mg, Mean ± SEM)” value in data set [1] turned out to be 0.069 ± 0.007 mg. Moreover, the “shear stress-induced thrombogenesis compared with the control group” value in data set [1] was “significantly, remarkably inhibited”. Further, the “Degree … (%, Mean ± SEM)” value in data set [2] (25 μM) amounted to 83.0 ± 4.0%; in data set [2] (100 μM), 80.0 ± 2.0%; in data set [2] (250 μM) it was 87.5 ± 3.5%; in data set [3] (compound 25 μM), 76.0 ± 3.0%; in data set [3] (compound 100 μM), 67.5 ± 2.5%; in data set [3] (compound 250 μM), 77.0 ± 12.0%. In addition, the “Cell viability (%)” value in data set [4] (EA.hy926, 25 μM) turned out to be 95.1 ± 1.9%; in data set [4] (EA.hy926, 100 μM), 97.2 ± 2.8%. The figures for the “Bleeding time” value in the data set on Sprague-Dawley rats (25 μM (so in the source)) and in the data set with Sprague-Dawley rats (100 μM (so in the source)) were 6.3 ± 0.6 min and 6.5 ± 0.3 min, respectively.
As to `CCc1occc(=O)c1OC(=O)c1ccc(O)c(OC)c1` [Example 13, 2-Ethyl-4-oxo-4H-pyran-3-yl 4-hydroxy-3-methoxybenzoate], the “Amount of thrombus (mg, Mean ± SEM)” value in data set [1] was 0.064 ± 0.006 mg. Moreover, the “shear stress-induced thrombogenesis compared with the control group” value in data set [1] was “significantly, remarkably inhibited”. Also, the “Degree … (%, Mean ± SEM)” value in data set [2] (25 μM) is 90.0 ± 3.0%; in data set [2] (100 μM) it was 79.5 ± 0.5%; in data set [2] (250 μM), 85.5 ± 3.5%; in data set [3] (compound 25 μM), 75.5 ± 1.5%; in data set [3] (compound 100 μM) it was 75.0 ± 1.0%; in data set [3] (compound 250 μM), 71.5 ± 6.5%. For the same molecule, the “Cell viability (%)” value in data set [4] (EA.hy926, 25 μM) is 100.1 ± 1.9%; in data set [4] (EA.hy926, 100 μM) it was 94.2 ± 2.0%. For the same molecule, the figures for the “Bleeding time” value with Sprague-Dawley rats (25 μM (so in the source)) and in the data set with Sprague-Dawley rats (100 μM (so in the source)) were 6.5 ± 0.6 min and 7.2 ± 0.3 min, respectively.
Regarding `COc1cc(C(=O)Oc2c(C)occc2=O)ccc1O` [Example 14, 2-Methyl-4-oxo-4H-pyran-3-yl 4-hydroxy-3-methoxybenzoate], in data set [1], the “Amount of thrombus (mg, Mean ± SEM)” value came to 0.066 ± 0.006 mg. In addition, in data set [1], the “shear stress-induced thrombogenesis compared with the control group” value is reported as “significantly, remarkably inhibited”. For the same molecule, the “Degree … (%, Mean ± SEM)” value in data set [2] (25 μM) is given as 82.0 ± 1.7%; in data set [2] (100 μM), 80.0 ± 1.7%; in data set [2] (250 μM), 92.0 ± 2.0%; in data set [3] (compound 25 μM) it was 74.5 ± 2.5%; in data set [3] (compound 100 μM), 75.0 ± 3.0%; in data set [3] (compound 250 μM), 63.5 ± 5.5%. Besides, the “Cell viability (%)” value amounted to 99.6 ± 1.7% in data set [4] (EA.hy926, 25 μM) and 99.5 ± 1.6% in data set [4] (EA.hy926, 100 μM). Besides, the “Bleeding time” value in the data set with Sprague-Dawley rats (25 μM (so in the source)) is 6.7 ± 0.9 min; with Sprague-Dawley rats (100 μM (so in the source)) it was 6.3 ± 0.6 min.
With `COc1ccc(NC(=O)c2ccc(O)c(OC)c2)c([N+](=O)[O-])c1` [Example 15, 4-Hydroxy-3-methoxy-N-(4-methoxy-2-nitrophenyl)benzamide], the “Amount of thrombus (mg, Mean ± SEM)” value in data set [1] is 0.070 ± 0.006 mg. Moreover, the “shear stress-induced thrombogenesis compared with the control group” value in data set [1] was “significantly, remarkably inhibited”. The “Degree … (%, Mean ± SEM)” value was found to be 86.0 ± 0.0% in data set [2] (25 μM); 84.5 ± 4.5% in data set [2] (100 μM); 83.5 ± 3.5% in data set [2] (250 μM); 70.5 ± 2.5% in data set [3] (compound 25 μM); 68.5 ± 3.5% in data set [3] (compound 100 μM); 67.0 ± 4.0% in data set [3] (compound 250 μM). Moreover, the “Cell viability (%)” value is on record as 100.8 ± 2.5% in data set [4] (EA.hy926, 25 μM) and 94.9 ± 3.3% in data set [4] (EA.hy926, 100 μM). The “Bleeding time” value in the data set on Sprague-Dawley rats (25 μM (so in the source)) is given as 7.3 ± 0.7 min; in the data set with Sprague-Dawley rats (100 μM (so in the source)) it was 6.2 ± 0.6 min.
Take `O=C(c1cc(O)ccc1O)N1CCc2sccc2C1` [Example 20, (6,7-Dihydrothieno[3,2-c]pyridin-5(4H)-yl)(2,5-dihydroxyphenyl)methanone]: the “Amount of thrombus (mg, Mean ± SEM)” value in data set [1] is recorded as 0.068 ± 0.005 mg. The “shear stress-induced thrombogenesis compared with the control group” value in data set [1] was “significantly, remarkably inhibited”. Also, the “Degree … (%, Mean ± SEM)” value is given as 82.3 ± 5.8% in data set [2] (25 μM); 81.3 ± 3.5% in data set [2] (100 μM); 87.7 ± 2.0% in data set [2] (250 μM); 73.0 ± 2.0% in data set [3] (compound 25 μM); 69.0 ± 1.0% in data set [3] (compound 100 μM); 66.5 ± 2.5% in data set [3] (compound 250 μM). For the same molecule, the “Cell viability (%)” value in data set [4] (EA.hy926, 25 μM) is reported as 99.7 ± 3.2%; in data set [4] (EA.hy926, 100 μM) it was 97.7 ± 2.2%. The entries for the “Bleeding time” value in the data set on Sprague-Dawley rats (25 μM (so in the source)) and in the data set on Sprague-Dawley rats (100 μM (so in the source)) were 6.7 ± 0.6 min and 7.7 ± 0.4 min, respectively.
On to `O=C(c1cc(O)ccc1O)N1CCC(c2noc3ccc(F)cc23)CC1` [Example 23, (2,5-Dihydroxyphenyl)(4-(5-fluorobenzo[d]isoxazol-3-yl)piperidin-1-yl)methanone], for which the “Amount of thrombus (mg, Mean ± SEM)” value in data set [1] is 0.071 ± 0.006 mg. Moreover, the “shear stress-induced thrombogenesis compared with the control group” value in data set [1] was “significantly, remarkably inhibited”. Moreover, the “Degree … (%, Mean ± SEM)” value in data set [2] (25 μM) amounted to 82.0 ± 5.0%; in data set [2] (100 μM), 84.5 ± 4.5%; in data set [2] (250 μM), 83.5 ± 2.5%; in data set [3] (compound 25 μM), 73.5 ± 1.5%; in data set [3] (compound 100 μM), 66.0 ± 1.0%; in data set [3] (compound 250 μM), 65.0 ± 0.0%. The “Cell viability (%)” value stood at 104.3 ± 1.8% in data set [4] (EA.hy926, 25 μM) and 99.9 ± 1.9% in data set [4] (EA.hy926, 100 μM).
